According to patent US4692447A, “Tricyclic dihydropyridazinones and pharmaceutical compositions containing them” (Boehringer Biochemia Robin, S.p.A., priority 1984, dated 1987):

Key:
[1] = acute toxicity in mice (LD50); settings: mouse, in vivo
Description: First of all, the compounds of the present invention are characterized by a low acute toxicity and a very favourable therapeutic index.
The compounds were administered by oral and intraperitoneal route.

[2] = system: sudden death induced by arachidonate in mice; experiment: protection against sudden death induced by arachidonate in mice; format: in vivo; settings: oral; for increase of protection as compared with ASA: screening dosage 20 mg/kg vs ASA 200 mg/kg; for protection against sudden death compared with ASA: 20 mg/kg vs ASA 200 mg/kg
Source text: The same compounds from BBR-1507 to BBR-1513, given orally, protected against sudden death induced by arachidonate in mice.

[3] = system: SHR Rats; experiment: hypotensive effect in conscious spontaneously hypertensive rats (Table 2); format: in vivo; design: ΔBP sist: unit not given here
Source text: (§1) As it is shown in Table 2, the decrease of the systolic median blood pressure was long lasting and the length of the effect was dose-related.

[4] = system: Normotensive rats; experiment: hypotensive effect in conscious normotensive rats (Table 2); format: in vivo; settings: os
Source text: as §1

[5] = system: conscious normal and in spontaneously hypertensive rats; experiment: hypotensive effect in conscious normal and spontaneously hypertensive rats; format: in vivo
Description: This is particularly the case of compounds like as BBR-1511, 1513 and 1509 which show only a little (5-8 mmHg) even if prolonged hypotensive effect when tested in conscious normal and in spontaneously hypertensive rats at doses ranging from 100 to 200 mg/kg by intraperitoneal route.

[6] = system: paw edema induced by carrageenin; experiment: paw edema induced by carrageenin; format: in vivo; settings: 20, 60 and 200 mg/kg; for reducing the paw edema induced by carrageenin: oral route; for activity in paw edema relative to ASA: oral, more active than ASA
[7] = system: platelet-rich plasma (PRP) from guinea pigs; experiment: in vitro platelet aggregation in platelet-rich plasma, Born aggregometer; format: cell-based; settings: vs ASA
[8] = system: sudden death induced by arachidonate in mice; experiment: protection against sudden death induced by arachidonate in mice; settings: vs ASA
[9] = intraperitoneal and oral, conscious normotensive and SHR rats, qualitative
[10] = conscious normal and SHR rats, 100 to 200 mg/kg, intraperitoneal, prolonged

| SMILES | LD50 ([1]; ip) [mg/kg] | LD50 ([1]; po, os) [mg/kg] | increase of protection as compared with ASA [2] | duration ([3]; os, 3.125 mg/kg) [h] | ΔBP sist ([3]; os, 3.125 mg/kg) | duration ([3]; os, 6.25 mg/kg) [h] | ΔBP sist ([3]; os, 6.25 mg/kg) | duration ([3]; os, 12.5 mg/kg) [h] | ΔBP sist ([3]; os, 12.5 mg/kg) | duration ([4]; 12.5 mg/kg) [h] | ΔBP sist ([4]; 12.5 mg/kg) | hypotensive effect [5, 9] | reducing the paw edema induced by carrageenin [6] | activity in paw edema relative to ASA [6] | protection against sudden death compared with ASA [2] | hypotensive effect [5, 10] | inhibiting platelet aggregation in vitro compared with ASA [7] | inhibiting platelet aggregation in vivo compared with ASA [8] | also measured |
| --- | --- | --- | --- | --- | --- | --- | --- | --- | --- | --- | --- | --- | --- | --- | --- | --- | --- | --- | --- |
| CC(=O)Nc1ccc2c(c1)CC1CC(=O)NN=C21 (racemic) [BBR-1507, dl-7-acetylamino-4,4a-dihydro-5H-indeno-[1,2-c]pyridazin-3-one] | 310 | > 1000 | 20-30% | 3 | -25 | > 4 | -50 | 5.6 | -58 | 3 | -26 | more evident and prolonged hypotensive effect | effective in reducing the paw edema | 1.5-2 times | – | – | – | – | duration ([3]; i.p., 50 mg/kg): > 4 h; ΔBP sist ([3]; i.p., 50 mg/kg): -55; duration ([3]; os, 1.56 mg/kg): 1.5 h; ΔBP sist ([3]; os, 1.56 mg/kg): -18; duration ([4]; 6.25 mg/kg): 3 h; ΔBP sist ([4]; 6.25 mg/kg): -8 |
| CCCCN1N=C2c3ccc(N)cc3CCC2CC1=O (racemic) [BBR-1511] | 1000 | > 1000 | – | – | – | – | – | – | – | – | – | – | – | – | equiactive as acetylsalicylic acid (ASA) | 5-8 mmHg | – | – | – |
| Nc1ccc2c(c1)CCC1CC(=O)NN=C21 (racemic) [BBR-1510, dl-8-amino-4,4a,5,6-tetrahydro-2H-benzo(h)-cinnolin-3-one] | 610 | > 1000 | 20-30% | 2 | -46 | 3.4 | -40 | > 3 | -60 | > 6 | -28 | more evident and prolonged hypotensive effect | effective in reducing the paw edema | 1.5-2 times | – | – | – | – | duration ([3]; i.p., 6.25 mg/kg): 1 h; ΔBP sist ([3]; i.p., 6.25 mg/kg): -55; duration ([3]; i.p., 12.5 mg/kg): > 4 h; ΔBP sist ([3]; i.p., 12.5 mg/kg): -80; duration ([3]; os, 1.56 mg/kg): 1 h; ΔBP sist ([3]; os, 1.56 mg/kg): -48 |
| Nc1ccc2c(c1)CCCC1CC(=O)NN=C21 (racemic) [BBR-1513, dl-9-amino-2,4,4a,5,6,7-hexahydro-3H-benzo-[6,7]-cyclohepten[1,2-c]-pyridazin-3-one] | 483 | 700 | – | – | – | – | – | – | – | – | – | – | scarcely effective | – | equiactive as acetylsalicylic acid (ASA) | 5-8 mmHg | at least equiactive as ASA | at least equiactive as ASA | – |
| O=C1CC2CCc3cc(NC(=O)CCl)ccc3C2=NN1 (racemic) [BBR-1514, dl-8-chloroacetylamino-4,4a,5,6-tetrahydro-2H-benzo(h)-cinnolin-3-one] | > 1000 | > 1000 | – | – | – | – | – | – | – | – | – | – | inactive | – | – | – | at least equiactive as ASA | at least equiactive as ASA | – |
| CC(=O)Nc1ccc2c(c1)CCCC1CC(=O)NN=C21 (racemic) [BBR-1509, dl-8-acetylamino-2,4,4a,5,6,7-hexahydro-3H-benzo[6,7]-cyclohepten[1,2-c]-pyridazin-3-one] | > 1000 | > 1000 | – | – | – | – | – | – | – | – | – | – | inactive | – | equiactive as acetylsalicylic acid (ASA) | 5-8 mmHg | at least equiactive as ASA | at least equiactive as ASA | – |
| CC(=O)Nc1ccc2c(c1)CCC1CC(=O)NN=C21 (racemic) [BBR-1508, dl-8-acetylamino-4,4a,5,6-tetrahydro-2H-benzo(h)-cinnolin-3-one] | 360 | > 1000 | 40% | 2 | -30 | 4 | -30 | 4.6 | -55 | 4 | -20 | more evident and prolonged hypotensive effect | effective in reducing the paw edema | 1.5-2 times | – | – | – | – | duration ([3]; i.p., 12.5 mg/kg): 3 h; ΔBP sist ([3]; i.p., 12.5 mg/kg): -50; duration ([3]; i.p., 25 mg/kg): 3 h; ΔBP sist ([3]; i.p., 25 mg/kg): -90; duration ([3]; os, 25 mg/kg): 4.6 h; ΔBP sist ([3]; os, 25 mg/kg): -65; ΔBP sist ([4]; 3.125 mg/kg): inactive; duration ([4]; 6.25 mg/kg): 1.5 h; ΔBP sist ([4]; 6.25 mg/kg): -8; duration ([4]; 25 mg/kg): 4 h; ΔBP sist ([4]; 25 mg/kg): -48 |
| Nc1ccc2c(c1)CC1CC(=O)NN=C21 (racemic) [BBR-1512, dl-7-amino-4,4a-dihydro-5H-indeno[1,2-c]-pyridazin-3-one] | 200 | 400 | 20-30% | – | – | – | – | – | – | – | – | – | – | – | – | – | – | – | – |
